Measured values taken from patent publication US20210038732A1, “ANTICANCER MICRORNA AND LIPID FORMULATIONS THEREOF” (INTERNA TECHNOLOGIES B.V., priority 2018, published 2021).

Tests used:
Format in all cases: cell-based, human
[1] = tested on: A549, H460; experiment: Cell viability (MTS assay or cell count); conditions: 10 nM; NSCLC A549, H460; normalized to mock
Protocol: (§1) Depending on cancer cell type 3000-6000 cells were seeded in a 96 well plate. After cells attached, they were transfected with different concentrations of miRNA-193a and viability was measured at different time points. Viability measurement was performed using CellTiter 96 AQueous One Solution Cell Proliferation Assay (Promega). 20 μL of MTS reagent was added to 100 μL of media in each well in 96-well plate and incubated for 2 hours at 37° C. Absorbance was measured at 490 nm for each sample in 96 well plate reader.
(§2) Different biological effects of miRNA-193a-3p have been tested in various cancer cell lines (see Table 13). For this, various cells were treated with miRNA-193a at different concentrations (1, 3, 10 nM). For all experiments controls (untreated, mock and scrambled) were measured. […] Data shown in Table 13 are the results for miRNA-193a at 10 nM concentration at indicated time points. All the results have been quantified and normalized to the mock control.
(§3) miRNA-193a treatment in various cancer cell lines decreased cell viability over time as measured by either an MTS assay or by cell count. It enhanced apoptosis induction over time as measured by a caspase 3/7 apoptosis assay. […] It is of note that due to intrinsic characteristics and gene mutation status of each cell line, performing one method to detect apoptosis is not always ideal for all cell lines.

[2] = tested on: HeP3B, SNU449; experiment: Cell viability (MTS assay or cell count); conditions: 10 nM, HCC HeP3B, normalized to mock
Protocol: as §1, §2, §3

[3] = tested on: Huh7; experiment: Cell viability (MTS assay or cell count); conditions: 10 nM; HCC Huh7; normalized to mock
Protocol: as §1, §2, §3

[4] = tested on: A2058; experiment: Cell viability (MTS assay or cell count); conditions: 10 nM; Melanoma A2058; normalized to mock
Protocol: as §1, §2, §3

[5] = tested on: MPP2, STMN1, YWHAZ, and CCNA2; experiment: Expression of G2/M related target genes by RT-PCR; conditions: 10 nM; Hep3B, SNU449 and H1975; 24h, 48h and 72h; vs mock
Protocol: To prepare cDNA, first 100 ng total RNA was mixed with Random Hexamers (Qiagen; final concentration 2 μM) in a final volume of 12.5 μl in NFW, denatured for 5 min at 70° C. and immediately cooled on ice. Next, 7.5 μl of a cDNA synthesis mix was added, consisting of 4 μl 5×RT Buffer (Promega), 0.4 μl 25 mM dNTPs (Promega), 1 μl 200 U/μL MMLV RT-enzyme (Promega), 0.5 μL 40 U/μL RNAse Inhibitor (Promega) and 1.6 μL NFW. The following cDNA synthesis protocol was used:
Similar phenotype has been observed in Panc1 (pancreatic cancer cell) as well as H1975 (lung cancer cell) (data not shown). […] MPP2 and STMN1 associate with cytoskeleton and therefore regulate cell division and proliferation at the G2/M phase, while YWHAZ and CCNA2 play roles in regulation of G2/M phase checkpoint by binding and sequestering the cyclin-dependent kinases.

[6] = tested on: A549, H460; experiment: Caspase 3/7 apoptosis assay; conditions: 10 nM, normalized to mock
Protocol: (§4) Depending on cancer cell type 3000-6000 cells were seeded in a 96 well plate. After cells attached, they were transfected with different concentrations of miRNA-193a and apoptosis induction was measured at different time points. This assay was performed using Promega kit. 100 uL of caspase reagent was added to 100 uL of media in each well in 96-well plate and incubated for 2 hours in the dark at room temperature. The luminescent signal was read on a luminescent plate reader.
(§5) Different biological effects of miRNA-193a-3p have been tested in various cancer cell lines (see Table 13). For this, various cells were treated with miRNA-193a at different concentrations (1, 3, 10 nM). For all experiments controls (untreated, mock and scrambled) were measured. All assays were performed at 24h, 48h and 72h time points. Data shown in Table 13 are the results for miRNA-193a at 10 nM concentration at indicated time points. All the results have been quantified and normalized to the mock control.
as §3

[7] = tested on: HeP3B, SNU449; experiment: Caspase 3/7 apoptosis assay; conditions: 10 nM, normalized to mock
Protocol: as §4, §5, §3

[8] = tested on: Huh7; experiment: Caspase 3/7 apoptosis assay; conditions: 10 nM, normalized to mock
Protocol: as §4, §5, §3

[9] = tested on: A2058; experiment: Caspase 3/7 apoptosis assay; conditions: 10 nM, normalized to mock
Protocol: as §4, §5, §3

[10] = tested on: A549, H460, HEP3B, HUH7, A2058, BT549; experiment: RNA-sequencing differential expression in six cancer cell lines; conditions: for Down-regulated genes: adjusted P<0.1, 10 nM, 24h
Protocol: Six human cancer cell lines were cultured in appropriate media (Table 3) and seeded into 6-well plates 24h before transfection with 10 nM miRNA-193a-3p or mock using Lipofectamine RNAiMAX (Thermofisher). Reagents were aspirated 16h after transfection and cells were passaged into new 6-well plates. Media was aspirated 24h after transfection and plates were stored at −80° C. Three independent replicates were performed for each cell line.
RNA was isolated using the miRNeasy Mini kit (Qiagen). The procedure included on-column DNase treatment. RNA concentration was measured on NanodropOne. 150 ng of each independent replicate was pooled and 450 ng samples (Table) were submitted to GenomeScan BV (Leiden, The Netherlands).
PolyA enrichment was performed followed by next generation RNA-Sequencing using Illumina NovaSeq 6000 at GenomeScan BV. The data processing workflow included raw data quality control, adapter trimming, and alignment of short reads. The reference GRCh37.75.dna.primary_assembly was used for alignment of the reads for each sample. Based on the mapped locations in the alignment file the frequency of how often a read was mapped on a transcript was determined (feature counting). The counts were saved to count files, which serve as input for downstream RNA-Seq differential expression analysis.
Differential expression analysis was performed on the short read data set by GenomeScan BV. The read counts were loaded into the DESeq package v1.30.0, a statistical package within the R platform v3.4.4. DESeq was specifically developed to find differentially expressed genes between two conditions (mock versus miRNA-193a-3p) for RNA-Seq data with small sample size and over-dispersion. […]

miRNA-193a: duplex of the miRNA-193a-3p of SEQ ID NO: 218 (mimic, sense) with antisense strand SEQ ID NO: 219; naked in vitro, formulated in vivo (sense UGGGACUUUGUAGGCCAGUUTT; antisense AACUGGCCUACAAAGUCCCAGU; chemistry not given here; listed as Homo sapiens)
Viability (96 h) [1]: ↓↓ (Viability < 50%) | Viability (96 h) [2]: ↓↓ (Viability < 50%) | Viability (96 h) [3]: ↓↓ (Viability < 50%) | Viability (96 h) [4]: ↓↓ (Viability < 50%) | Expression level of G2/M related target genes [5]: down-regulated | Apoptosis (48/72 h) [6]: ↑↑ (Induction > 2x) | Apoptosis (48/72 h) [7]: ↑ (Induction < 2x) | Apoptosis (48/72 h) [8]: ↑ (Induction < 2x) | Apoptosis (48/72 h) [9]: ↑↑ (Induction > 2x) | % Predicted ([10]; # cell lines =6): 83% | Down-regulated genes ([10]; # cell lines =6): 35 | % Predicted ([10]; # cell lines ≥1): 58% | Down-regulated genes ([10]; # cell lines ≥1): 352 | % Predicted ([10]; # cell lines ≥2): 65% | Down-regulated genes ([10]; # cell lines ≥2): 282 | % Predicted ([10]; # cell lines ≥3): 67% | Down-regulated genes ([10]; # cell lines ≥3): 242 | % Predicted ([10]; # cell lines ≥4): 66% | Down-regulated genes ([10]; # cell lines ≥4): 218 | % Predicted ([10]; # cell lines ≥5): 63% | Down-regulated genes ([10]; # cell lines ≥5): 181
